According to publication PMC7534258, “Novel temporin L antimicrobial peptides: promoting self-assembling by lipidic tags to tackle superbugs” (Journal of Enzyme Inhibition and Medicinal Chemistry, 2020):
Where a SMILES comes first, the peptide text is derived from it. [ ]: non-standard residue; d: D form. The star is where a group is joined. Phe(4-NH2) = Nc1ccc(C[C@H](N)C(=O)O)cc1; Pentanoyl = CCCCC(=O)*

How the values were obtained:
ANTS/DPX leakage assay = conditions: ANTS/DPX-loaded LUVs, Gram-positive and Gram-negative mimicking
Method: Large unilamellar vesicles (LUVs) and small unilamellar vesicles (SUVs) consisting of DOPG/CL (58/42 ratio in moles) and DOPG/DOPE/CL (63/23/12 ratio in moles), mimic the Gram-positive membrane and Gram-negative membrane, respectively. LUVs were prepared using the extrusion method as previously described. In particular, first lipid films were prepared by dissolving an appropriate amount of lipids in chloroform and fluorescent probes were added when necessary, then dried under a nitrogen gas stream and freeze-dried overnight. In all experiments, we used a final lipid concentration of 0.1 mM. For fluorescence experiments, buffer was added to dry lipid films and vortexed for 1 h; then the lipid suspension was freeze-thawed 6 times and extruded 10 times through polycarbonate membranes with 0.1 µm diameter pores to obtain LUVs. For circular dichroism measurements, peptide samples in SUVs were prepared as reported in the following protocol. Lipids were dissolved in chloroform and added to an equal volume of peptide solution dissolved in TFE containing appropriate peptide concentration. The samples were vortexed and lyophilised overnight. The dry samples were rehydrated with phosphate buffer 5 mM, pH 7.4 for 1 h and sonicated for 30 min.
The ANTS/DPX leakage assay was used to measure the ability of peptide to permeabilise and induce leakage of encapsulated dyes. After lipid films were prepared as previously described, ANTS (12.5 mM) and DPX (45 mM) were dissolved in 2 ml water, were added to lipid films and then lyophilised overnight. The lipid films with encapsulated ANTS and DPX were hydrated with PBS 1X buffer, vortexed for 1 h and then treated to obtain LUVs. The non-encapsulated ANTS and DPX were removed by gel filtration using a Sephadex G-50 column (1.5 cm × 10 cm) at room temperature. To start up the leakage experiment, a 2 mM peptide stock solution was prepared and LUVs were titrated with the peptide. Samples were excited at 385 nm (slit width, 5 nm) and fluorescence emission was recorded at 512 nm (slit width, 5 nm). After the addition of peptide, we evaluated leakage of encapsulated ANTS through a change in fluorescence spectra of ANTS and DPX. In particular, leakage is associated to an increase in ANTS fluorescence at 512 nm. Complete release of ANTS was obtained by using 0.1% Triton X, which caused the total destruction of liposomes. The percentage of leakage was calculated as % leakage =(Fi−F0)/(Ft−F0), where F0 represents the fluorescence of intact LUVs before the addition of peptide, and Fi and Ft denote the intensities of the fluorescence achieved after peptide and Triton-X treatment, respectively.

Pa1 = test: microbe, parasite or virus in culture; conditions: multidrug resistant clinical isolate
Method: (§1) Clinical strains of P. aeruginosa (Pa1, Pa2 and Pa3), K. pneumoniae (KpCR1, KpCR2 and KpCR3), and S. aureus (Sa1, Sa2 and Sa3) were isolated from bloodstream or pulmonary infections, and belong to a collection of bacterial strains established between 2010 and 2018 at the Department of Molecular Medicine and Medical Biotechnologies (University Federico II, Naples) for research use.
(§2) Identification was performed by sub-culturing on Tryptic Soy Agar (TSA, Becton Dickinson) and by biochemical characterisation using the Vitek II system (Biomerieux). The antimicrobial susceptibility testing of all isolates was determined using Vitek II system and results were interpreted according to European Committee on Antimicrobial Susceptibility Testing (EUCAST version 9.0, 2019). P. aeruginosa was cultured in Brain Heart Infusion broth (BHI, OXOID), S. aureus and K. pneumoniae were cultured in Tryptic Soya broth (TSB, OXOID), under aerobic conditions at 37 °C, for 24 h on an orbital shaker at 200 rpm.
(§3) Minimal inhibitory concentrations (MIC) of all the peptides were determined in Mueller–Hinton medium by the broth microdilution assay, following the procedure already described[22]^,[34]. The compounds were added to bacterial suspension in each well yielding a final cell concentration of 1 × 10^6 CFU/ml and a final compound concentration ranging from 0.78 to 100 µM. Negative control wells were set to contain bacteria in Mueller–Hinton broth plus the amount of vehicle (ethanol) used to dilute each compound. Positive controls included vancomycin (2 µg/ml), tobramycin (4 µg/ml), gentamycin (4 µg/ml), and imipenem (8 µg/ml).

Sa3 = test: microbe, parasite or virus in culture; conditions: 24 h
Method: as §1, §2, §3

KpCR3 = test: microbe, parasite or virus in culture; conditions: carbapenem-resistant clinical isolate
Method: as §1, §2, §3

Pa3 = test: microbe, parasite or virus in culture; conditions: multidrug resistant clinical isolate
Method: as §1, §2, §3

Sa2 = test: microbe, parasite or virus in culture
Method: as §1, §2, §3

Sa1 = test: microbe, parasite or virus in culture
Method: as §1, §2, §3

KpCR2 = test: microbe, parasite or virus in culture; conditions: carbapenem-resistant clinical isolate
Method: as §1, §2, §3

Pa2 = test: microbe, parasite or virus in culture; conditions: multidrug resistant clinical isolate
Method: as §1, §2, §3

KpCR1 = test: microbe, parasite or virus in culture; conditions: carbapenem-resistant clinical isolate
Method: as §1, §2, §3

P. aeruginosa ATCC 27853 = test: Broth microdilution MIC, reference strain; type: cell-based, Pseudomonas aeruginosa
Method: (§4) Staphylococcus aureus ATCC 25923, Pseudomonas aeruginosa ATCC 27853 and Klebsiella pneumoniae ATCC BAA-1705 (carbapenemase producer) were obtained from the American Type Culture Collection (Rockville, MD).
as §2, §3

[1] = tested on: K. pneumoniae ATCC BAA-1705; test: Broth microdilution MIC, reference strain; type: cell-based, Klebsiella pneumoniae
Method: as §4, §2, §3

[2] = 100% growth inhibition after 16–18 h at 37 °C

SMILES | membrane leakage ability (in words) (ANTS/DPX leakage assay) | Antimicrobial activity (MIC) Pa1 (Pa1) [µM] | Antimicrobial activity (MIC) Sa3 (Sa3) [µM] | Antimicrobial activity (MIC) KpCR3 (KpCR3) [µM] | Antimicrobial activity (MIC) Pa3 (Pa3) [µM] | Antimicrobial activity (MIC) Sa2 (Sa2; MRSA clinical isolate) [µM] | Antimicrobial activity (MIC) Sa1 (Sa1; MRSA clinical isolate) [µM] | Antimicrobial activity (MIC) KpCR2 (KpCR2) [µM] | Antimicrobial activity (MIC) Pa2 (Pa2) [µM] | Antimicrobial activity (MIC) KpCR1 (KpCR1) [µM] | Antimicrobial activity (MIC) P. aeruginosa ATCC 27853 (P. aeruginosa ATCC 27853; [2]) [µM] | Antimicrobial activity (MIC) K. pneumoniae ATCC BAA-1705 [1, 2] [µM] | Antimicrobial activity (MIC) Sa2 (Sa2; 24 h) [µM] | Antimicrobial activity (MIC) Sa1 (Sa1; 24 h) [µM] | Antimicrobial activity (MIC) P. aeruginosa ATCC 27853 (P. aeruginosa ATCC 27853; ATCC 27853) [µM] | Antimicrobial activity (MIC) K. pneumoniae ATCC BAA-1705 ([1]; ATCC BAA-1705) [µM]
CC[C@H](C)[C@H](NC(=O)[C@H](CCCNC(=N)N)NC(=O)[C@@H](CCCCN)NC(=O)[C@@H](CC(C)C)NC(=O)[C@H](Cc1ccccc1)NC(=O)[C@H](CCCCN)NC(=O)[C@H](CO)NC(=O)[C@H](Cc1ccccc1)NC(=O)[C@H](Cc1c[nH]c2ccccc12)NC(=O)[C@@H]1CCCN1C(=O)[C@@H](NC(=O)[C@@H](N)Cc1ccccc1)C(C)C)C(=O)N[C@@H](CC(C)C)C(N)=O [Compound 1B, H-Phe-Val-Pro-Trp-Phe-Ser-Lys-Phe-DLeu-DLys-Arg-Ile-Leu-NH2] (H-FVPWFSKF[dL][dK]RIL-NH2) | lowest leakage ability | 12.5 | 6.25 | 12.5 | 12.5 | 12.5 | 12.5 | 12.5 | 12.5 | 12.5 | 12.5 | 12.5 | – | – | – | –
CCCCC(=O)Nc1ccc(C[C@H](N)C(=O)N[C@H](C(=O)N2CCC[C@H]2C(=O)N[C@@H](Cc2c[nH]c3ccccc23)C(=O)N[C@@H](Cc2ccccc2)C(=O)N[C@@H](CO)C(=O)N[C@@H](CCCCN)C(=O)N[C@@H](Cc2ccccc2)C(=O)N[C@H](CC(C)C)C(=O)N[C@H](CCCCN)C(=O)N[C@@H](CCCNC(=N)N)C(=O)N[C@H](C(=O)N[C@@H](CC(C)C)C(N)=O)[C@@H](C)CC)C(C)C)cc1 [C, H-Phe(4-NHCO(CH2)3CH3)-Val-Pro-Trp-Phe-Ser-Lys-Phe-DLeu-DLys-Arg-Ile- Leu-NH2] (H-[Phe(4-NH2)](Pentanoyl)VPWFSKF[dL][dK]RIL-NH2) | intermediate ability to produce leakage | 25 | 12.5 | 12.5 | 25 | – | – | 12.5 | 25 | 12.5 | – | – | 12.5 | 12.5 | 25 | 6.25
